Measured values as given in patent US20220370310A1, “SURFACE-TREATED MAGNESIUM OR CALCIUM ION-CONTAINING MATERIALS AS WHITE PIGMENTS IN ORAL CARE COMPOSITIONS” (CHILDREN'S MEDICAL CENTER CORPORATION, priority 2020, published 2022).

Assays:
[1] = tested on: antigen-specific T cell responses; test: In vivo OVA immunization and T cell re-stimulation; set-up: species or system C57BL/6J mice
Experimental: Flow cytometry: After FcR blockade, 7 days BMDCs were resuspended in MACS buffer (PBS with 1% FCS and 2 mM EDTA), and stained with the following fluorescently conjugated antibodies (BioLegend): anti-CD11c (clone N418), anti-I-A/I-E (clone M5/114.15.2), anti-CD40 (clone 3/23), anti-CD80(16-10A1), anti-CD69 clone (H1.2F3), anti-H-2Kb (clone AF6-88.5). Single cell suspension from the tumor or draining inguinal lymph nodes, or skin inguinal adipose tissue were resuspended in MACS buffer (PBS with 1% FCS and 2 mM EDTA), and stained with the following fluorescently conjugated antibodies (BioLegend): anti-CD8a (clone 53-6.7), anti-CD4 (clone RM4-5), anti-CD44 (clone IM7), anti-CD62L (MEL-14), anti-CD3 (17A2), anti-CD103 (2E7), anti-CD69 clone (H1.2F3), anti-CD45 (A20 or 30F11). LIVE/DEAD™ Fixable Violet Dead Cell Stain Kit (Molecular probes) was used to determine the viability of cells, and cells were stained for 20 minutes in PBS at 4° C. Draining inguinal lymph nodes T cells were stained with OVA-peptide tetramers at room temperature for 1 h. PE-conjugated H2K(b) SIINFEKL (OVA 257-264; SEQ ID NO: 1) and APC conjugated I-A(b) AAHAEINEA (OVA 329-337; SEQ ID NO: 2) were used. I-A(b) and H2K(b) associated with CLIP peptides were used as isotype controls. […] Data were analyzed using FlowJo software.
Intracellular staining: For intracellular cytokine staining, cells were stimulated with 50 ng/ml phorbol 12-myristate 13-acetate (PMA) and 500 ng/ml ionomycin (Sigma-Aldrich) in the presence of GolgiStop (BD) and brefeldin A for 4-5 h. […] Data were analyzed using FlowJo software.
In vivo immunization and T cell re-stimulation: Female C57BL/6J mice aged 8 weeks, were immunized subcutaneously (s.c.) on the left lower back with either 150 μg/mouse endotoxin-free OVA plus 10 μg/mouse LPS emulsified in incomplete Freund's adjuvant, or with 150 μg/mouse endotoxin-free OVA, plus 65 μg/mouse oxPAPC or PGPC, plus 10 μg/mouse LPS emulsified in incomplete Freund's adjuvant. […] Secretion of IFNγ, IL-10 and IL-2 were measured by ELISA 5 days later. […]

B16OVA cells = test: Immunization prior to tumor inoculation, B16OVA challenge; assay type: in vivo, C57BL/6 mice; details: s.c. immunization with B16OVA WTL, challenge 15 days later
Experimental: Whole tumor cell lysates preparation: To prepare whole tumor cell lysates (WTL) for immunization, tumor cell lines were cultured for 4-5 days in complete DMEM. When cells became confluent, supernatants were collected, and the cells were washed and dissociated using trypsin-EDTA (Gibco). Tumor cell lines were then resuspended at 5×10^6 cells/ml in their collected culture supernatant, then lysed by 3 cycles of freeze-thawing.
In vivo immunization and tumor challenges: For immunization prior tumor inoculation, C57BL/6 mice were injected subcutaneously (s.c.) into the right flank with PBS (unimmunized), WTL alone or with LPS, or WTL plus LPS and OxPAPC or PGPC all emulsified in incomplete Freud's adjuvant (IFA). In some experiments, LPS is replaced by MPLA. […] Tumor-free mice were re-challenged s.c. into the upper back with a lethal dose of 5×10^5 viable B16OVA or B16F-10 cells, or 1×10^6 of viable MC38-OVA cells as indicated.
Tumor Infiltration: To assess the frequency of tumor-infiltrating lymphocytes (TIL) in immunized mice, tumors were harvested when their size reached 1.8-2 cm. Tumors were dissociated using the tumor Dissociation Kit (Milteny Biotec) and the gentleMACS dissociator following the manufacturer's protocol. […] CD45^+ cells were positively selected using CD45 microbeads (Milteny Biotec), and T cell infiltration was assessed by flow cytometry. […]

OT-I and OT-II T cells = test: OT-I and OT-II in vitro T-cell stimulation; assay type: cell-based, mouse; details: OVA-loaded BMDCs pretreated with stimulus, FIG. 1F
Experimental: OT-I and OT-II in vitro T-cell stimulation: Splenic CD8+ and CD4^+ T cells were sorted from OT-I and OT-II mice by magnetic cell sorting with anti-CD8 beads or anti-CD4 beads respectively (Miltenyi Biotech). Sorted T cells were then seeded in 96-well plates at a concentration of 100.000 cells per well in the presence of either 20.000 or 10.000 DCs (5:1 or 10:1 ratio) that were pretreated with either LPS (activation stimuli) or LPS+PGPC (hyperactivation stimuli) or LPS+Alum (pyroptotic stimuli) and pulsed (or not) with OVA protein or SIINFEKL (SEQ ID NO: 1) peptide at 100 μg/ml for 2 hours. 5 days post culture, supernatants were collected and clarified by centrifugation for short-term storage at −20° C. and cytokine measurement by ELISA.
Intracellular staining: For intracellular cytokine staining, cells were stimulated with 50 ng/ml phorbol 12-myristate 13-acetate (PMA) and 500 ng/ml ionomycin (Sigma-Aldrich) in the presence of GolgiStop (BD) and brefeldin A for 4-5 h. Cells were then washed twice with PBS, and stained with LIVE/DEAD™ Fixable violet or green Dead Cell Stain Kit (Molecular probes) in PBS for 20 min at 4° C. Cells were washed with MACS buffer, and stained for appropriate surface markers for 20 min at 4° C. […] Data were analyzed using FlowJo software.

BMDCs = details: prior work (Zanoni et al., 2016); cited from earlier work

Row | Compound | effector and memory T cell generation in dLN ([1]; 7 and 40 days post-immunization with OVA (+LPS), CD44/CD62L flow cytometry) | antigen-specific tetramer+IFNγ+ T cell responses ([1]; WT mice, 7 days post immunization with OVA, re-stimulated 7 days with OVA-loaded BMDC) | protection against B16OVA tumor challenge (B16OVA cells) | TH1/TH2 phenotype of the T cell response ([1]; immunization with OVA) | IL-10 and IL-13 release by OT-II T cells (OT-I and OT-II T cells) | TNFα and IL-1β release by LPS-activated BMDCs (BMDCs)
1 | CCCCCCCCCCCCCCCC(=O)OC[C@H](COP(=O)([O-])OCC[N+](C)(C)C)OC(=O)CCCC(=O)O [PGPC, [(2R)-2-(4-carboxybutanoyloxy)-3-hexadecanoyloxypropyl] 2-(trimethylazaniumyl)ethyl phosphate] | enhance the magnitude of effector and memory T cell generation | highest frequency of tetramer+IFNγ+ responses | confers optimal protection | – | – | –
2 | lipopolysaccharide [LPS] | – | – | – | mixed TH1 and TH2 phenotype | large amounts of IL-10, and IL-13 | release TNFα but not IL-1β
